Test results from patent publication US11578055B2, “Triazacyclododecansulfonamide (“TCD”)-based protein secretion inhibitors” (KEZAR LIFE SCIENCES, priority 2018, dated 2023).
Like-named read-outs stand apart in the source and are kept apart here.

Assays:
[1] = In Vitro Microsome Stability Assay (mouse); assay type: in vitro ADME
Method in brief: (§1)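 Species liver microsomes in potassium phosphate buffer were preincubated at 37 °C for 3–5 min with test compound (added from 0.25 mM DMSO stock), then started with NADPH. Samples at 0 and 30 min were quenched with acetonitrile containing internal standard and analysed by LC-MS/MS; % remaining at 30 min used analyte/IS AUC ratios relative to t=0.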

[2] = system: multiple myeloma cell line NCl-H929; test: H929 Cell Viability Assay; assay type: cell-based, human; conditions: Homo sapiens, NCI-H929, 48 h
Method in brief: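 Viability was determined by CellTiter-Glo luminescence after a 48 h, 37 °C exposure of NCI-H929 cells to serial compound dilutions in medium containing 10% FBS. Where stereochemistry is not shown, values refer to a mix of stereoisomers.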

[3] = system: full length IL-2 (amino acids 1-153) fused to Gaussia Luciferase; test: Dox Induced IL2-FL-Gluc Assay; assay type: cell-based; conditions: 24 hr, read-out: 24 hr Dox Inducible IL2FLGluc 293FRT/TO: Mean IC50
Method in brief: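 Compounds in DMSO/media with doxycycline were added to cells plated the previous day and incubated at 37° C, 5% CO2. Cells: stable Flp-In 293 T-REx line, Dox-regulated expression of IL-2 (aa 1-153) fused at its C-terminus to Gaussia luciferase.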

[4] = In Vitro Microsome Stability Assay (human); assay type: in vitro ADME
Method in brief: as §1

[5] = system: multiple myeloma cell line U266B1; test: U266 Cell Viability Assay; assay type: cell-based, human; conditions: Homo sapiens, U-266, 48 hr
Method in brief: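 Viability was measured by CellTiter-Glo luminescence after 48 h compound exposure at 37° C, 5% CO2. The cells were U266B1 multiple myeloma cells grown in RPMI 1640 plus 10% FBS. Where stereochemistry is not shown, values apply to the stereoisomer mixture.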

[6] = In Vitro Microsome Stability Assay (rat); assay type: in vitro ADME
Method in brief: as §1

[7] = In Vitro Microsome Stability Assay (monkey); assay type: in vitro ADME
Method in brief: as §1

[8] = system: PD1 signal sequence plus 10 amino acids fused to Gaussia Luciferase (PD1-ss+10aa/Gaussia Luciferase); test: Dox Induced PD1-ss-Gluc Assay; assay type: cell-based; conditions: 24 hr, read-out: 24 hr Dox Inducible PD1ssGluc 293FRT/TO: Mean IC50
Method in brief: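 Compound dilutions in DMSO/media containing doxycycline were applied to a stable, inducible 293 T-REx line carrying the luciferase fusion, then incubated at 37 °C, 5% CO2. Where stereochemistry is not drawn, values relate to isomer mixtures.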

[9] = system: full length TNFα (amino acids 1-233) fused to Gaussia Luciferase; test: Dox Induced TNFα-FL-Gluc Assay; assay type: cell-based; conditions: 24 hr, read-out: 24 hr Dox Inducible TNFaFLGluc 293FRT/TO: Mean IC50
Method in brief: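 Compounds diluted in DMSO/medium with doxycycline were incubated at 37° C, 5% CO2 with 293 T-REx cells stably carrying a Tet-regulated TNFα(1-233)-Gaussia luciferase construct. Data for structures drawn without stereochemistry refer to stereoisomer mixtures.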

[10] = mouse liver microsomes, 30 min w/ NADPH
[11] = human liver microsomes, 30 min w/ NADPH
[12] = rat liver microsomes, 30 min w/ NADPH
[13] = monkey liver microsomes, 30 min w/ NADPH

| SMILES | Liver Microsome Stability-% Left after 30 min w/ NADPH (%) Mouse [1, 10] | EC50 ([2]; H929, Celltiter-Glo) | IC50 ([3]; Dox inducible, 293FRT/TO cells) | Liver Microsome Stability-% Left after 30 min w/ NADPH (%) Human [4, 11] | EC50 ([5]; U266, Celltiter-Glo) | Liver Microsome Stability-% Left after 30 min w/ NADPH (%) Rat [6, 12] | Liver Microsome Stability-% Left after 30 min w/ NADPH (%) Monkey [7, 13] | IC50 ([8]; Dox inducible, 293FRT/TO cells) | IC50 ([9]; Dox inducible, 293FRT/TO cells) | Liver Microsome Stability-% Left after 30 min w/ NADPH (%) Mouse ([1]; mouse, 30 min, NADPH) | EC50 ([2]; H929, read-out: 48 hr H929 Viability Celltiter-Glo: Mean EC50) | IC50 ([3]; 293FRT/TO) | Liver Microsome Stability-% Left after 30 min w/ NADPH (%) Human ([4]; human, 30 min, NADPH) | EC50 ([5]; U266, read-out: 48 hr U266 Viability Celltiter-Glo: Mean EC50) | Liver Microsome Stability-% Left after 30 min w/ NADPH (%) Rat ([6]; rat, 30 min, NADPH) | Liver Microsome Stability-% Left after 30 min w/ NADPH (%) Monkey ([7]; monkey, 30 min, NADPH) | IC50 ([8]; 293FRT/TO) | IC50 ([9]; 293FRT/TO) |
| --- | --- | --- | --- | --- | --- | --- | --- | --- | --- | --- | --- | --- | --- | --- | --- | --- | --- | --- |
| C[C@H]1CN(S(=O)(=O)c2ccc(N(C)C)cc2)CCCN(CC2CCCCC2)CCCN(S(=O)(=O)N2CCc3c(Cl)cccc3C2)C1 [A181, 4-{[(3S)-5-[(5-chloro-1,2,3,4-tetrahydroisoquinolin-2-yl)sulfonyl]-9-(cyclohexylmethyl)-3-methyl-1,5,9-triazacyclododecan-1-yl]sulfonyl}-N,N-dimethylaniline] | 17.1% | 1480 nM | 122 nM | 23.3% | > 25000 nM | 22.0% | 27.9% | 38.7 nM | 984 nM | – | – | – | – | – | – | – | – | – |
| C[C@H]1CN(S(=O)(=O)c2ccc(N(C)C)cc2)CCCN(CC(F)(F)F)CCCN(S(=O)(=O)N2CCc3cc(Cl)ccc3C2)C1 [A167, 4-{[(3S)-5-[(6-chloro-1,2,3,4-tetrahydroisoquinolin-2-yl)sulfonyl]-3-methyl-9-(2,2,2-trifluoroethyl)-1,5,9-triazacyclododecan-1-yl]sulfonyl}-N,N-dimethylaniline] | 18.3% | 6500 nM | 412 nM | 5.68% | > 25000 nM | 9.19% | 73% | 201 nM | 2660 nM | – | – | – | – | – | – | – | – | – |
| C[C@H]1CN(S(=O)(=O)c2ccc(N(C)C)cc2)CCCN(CCC(F)(F)F)CCCN(S(=O)(=O)N2CCc3cc(Cl)ccc3C2)C1 [A165, 4-{[(3S)-5-[(6-chloro-1,2,3,4-tetrahydroisoquinolin-2-yl)sulfonyl]-3-methyl-9-(3,3,3-trifluoropropyl)-1,5,9-triazacyclododecan-1-yl]sulfonyl}-N,N-dimethylaniline] | 14.9% | 4090 nM | 294 nM | 2.23% | > 25000 nM | 11.9% | 12.8% | 131 nM | 1860 nM | – | – | – | – | – | – | – | – | – |
| CC1Cc2ccccc2CN1S(=O)(=O)N1CCCN(CC2CCCCC2)CCCN(S(=O)(=O)c2ccc(N(C)C)cc2)C[C@H](C)C1 (stereo partly drawn) [A172, 4-{[(3S)-9-(cyclohexylmethyl)-3-methyl-5-[(3-methyl-1,2,3,4-tetrahydroisoquinolin-2-yl]sulfonyl]-1,5,9-triazacyclododecan-1-yl]sulfonyl}-N,N-dimethylaniline] | 3.65% | 1750 nM | 66.4 nM | 3.46% | > 25000 nM | 2.23% | 2.63% | 29.2 nM | 436 nM | – | – | – | – | – | – | – | – | – |
| C[C@H]1CN(S(=O)(=O)c2ccc(N(C)C)cc2)CCCN(CC2CCCCC2)CCCN(S(=O)(=O)N2CCN(c3ccccc3F)CC2)C1 [A94, 4-{[(3S)-9-(cyclohexylmethyl)-5-{[4-(2-fluorophenyl)piperazin-1-yl]sulfonyl}-3-methyl-1,5,9-triazacyclododecan-1-yl]sulfonyl}-N,N-dimethylaniline] | – | – | – | – | – | – | – | – | – | 45.7% | 800 nM | 78.3 nM | 42.1% | > 25000 nM | 45.5% | 30.3% | 36.4 nM | 550 nM |
| Cc1cccc(C)c1N1CCN(S(=O)(=O)N2CCCN(CC3CCCCC3)CCCN(S(=O)(=O)c3ccc(N(C)C)cc3)C[C@H](C)C2)CC1 [A119, 4-{[(3S)-9-(cyclohexylmethyl)-5-{[4-(2,6-dimethylphenyl)piperazin-1-yl]sulfonyl}-3-methyl-1,5,9-triazacyclododecan-1-yl]sulfonyl}-N,N-dimethylaniline] | 50.8% | 7680 nM | 170 nM | 71.7% | > 25000 nM | 66.1% | 53.9% | 52.3 nM | 1080 nM | – | – | – | – | – | – | – | – | – |
| COc1cc(F)ccc1C1CN(S(=O)(=O)N2CCCN(CC3CCCCC3)CCCN(S(=O)(=O)c3ccc(N(C)C)cc3)C[C@H](C)C2)C1 [A178, 4-{[(3S)-9-(cyclohexylmethyl)-5-{[3-(4-fluoro-2-methoxyphenyl)azetidin-1-yl]sulfonyl}-3-methyl-1,5,9-triazacyclododecan-1-yl]sulfonyl}-N,N-dimethylaniline] | 22.8% | > 25000 nM | 255 nM | 24.0% | > 25000 nM | 29.2% | 25.8% | 135 nM | 4820 nM | – | – | – | – | – | – | – | – | – |
| Cc1ccc(CN2CCCN(S(=O)(=O)c3ccc(N(C)C)cc3)C[C@H](C)CN(S(=O)(=O)N3CCc4cc(Cl)ccc4C3)CCC2)cc1 [A131, 4-{[(3S)-5-[(6-chloro-1,2,3,4-tetrahydroisoquinolin-2-yl)sulfonyl]-3-methyl-9-[(4-methylphenyl)methyl]-1,5,9-triazacyclododecan-1-yl]sulfonyl}-N,N-dimethylaniline] | 101% | 4740 nM | 426 nM | 84.5% | > 25000 nM | 73.9% | 70.2% | 145 nM | 2400 nM | – | – | – | – | – | – | – | – | – |
| Cc1cccc(CN2CCCN(S(=O)(=O)c3ccc(N(C)C)cc3)C[C@H](C)CN(S(=O)(=O)N3CCc4cc(Cl)ccc4C3)CCC2)c1 [A156, 4-{[(3S)-5-[(6-chloro-1,2,3,4-tetrahydroisoquinolin-2-yl)sulfonyl]-3-methyl-9-[(3-methylphenyl)methyl]-1,5,9-triazacyclododecan-1-yl]sulfonyl}-N,N-dimethylaniline] | 75.6% | 3710 nM | 207 nM | 81.3% | > 25000 nM | 82.1% | 80.6% | 92.5 nM | 1830 nM | – | – | – | – | – | – | – | – | – |
